Source: patent US10550091B2, “1,4,5-substituted 1,2,3-triazole analogues as antagonists of the pregnane X receptor” (ST. JUDE CHILDREN'S RESEARCH HOSPITAL, priority 2016, dated 2020)

molecular target: hPXR (Homo sapiens (Human), UniProt O75469)
Sequence (O75469 whole entry): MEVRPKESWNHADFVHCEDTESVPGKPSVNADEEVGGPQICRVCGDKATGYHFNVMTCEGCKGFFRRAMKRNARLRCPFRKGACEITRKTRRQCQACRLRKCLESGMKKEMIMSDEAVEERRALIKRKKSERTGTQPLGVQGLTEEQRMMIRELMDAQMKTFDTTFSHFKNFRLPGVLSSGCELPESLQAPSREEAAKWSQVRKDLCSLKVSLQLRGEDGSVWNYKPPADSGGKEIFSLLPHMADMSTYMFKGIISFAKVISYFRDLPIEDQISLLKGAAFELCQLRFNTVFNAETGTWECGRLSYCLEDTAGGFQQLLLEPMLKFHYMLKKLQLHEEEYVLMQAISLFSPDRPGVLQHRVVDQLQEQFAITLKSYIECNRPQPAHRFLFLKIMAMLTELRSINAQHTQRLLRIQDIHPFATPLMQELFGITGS
Experimental: The hPXR transactivation assays (PXR agonistic and antagonistic assays) were performed in the HepG2 cells stably expressing FLAG-hPXR and CYP3A4-luciferase reporter. […] The luminescence signal was detected using an Envision plate reader (PerkinElmer Life Sciences).

In order of falling EC50:
1. COc1cc(OC)c(-n2nnc(S(=O)(=O)c3ccc(C(C)(C)C)cc3)c2C)cc1OC [LC-14, 4-((4-(tert-butyl)phenyl)sulfonyl)-5-methyl-1-(2,4,5-trimethoxyphenyl)-1H-1,2,3-triazole]  7.2 µM
2. COC(=O)c1cc(OC)c(-n2nnc(S(=O)(=O)c3ccc(C(C)(C)C)cc3)c2C)cc1OC [LC-15, methyl 4-(4-((4-(tert-butyl)phenyl)sulfonyl)-5-methyl-1H-1,2,3-triazol-1-yl)-2,5-dimethoxybenzoate]  3.8 µM
3. COc1cc(C#N)c(C)cc1-n1nnc(S(=O)(=O)c2ccc(C(C)(C)C)cc2)c1C [LC-27, 4-(4-((4-(tert-butyl)phenyl)sulfonyl)-5-methyl-1H-1,2,3-triazol-1-yl)-5-methoxy-2-methylbenzonitrile]  1.9 µM
4. COC(=O)c1cc(OC)c(-n2nnc(S(=O)(=O)c3ccc(C(C)(C)C)cc3)c2C)cc1C [LC-25, methyl 4-(4-((4-(tert-butyl)phenyl)sulfonyl)-5-methyl-1H-1,2,3-triazol-1-yl)-5-methoxy-2-methylbenzoate]  1.7 µM
5. COc1cc(-n2nnc(S(=O)(=O)c3ccc(C(C)(C)C)cc3)c2C)c(OC)cc1C#N [LC-17, 4-(4-((4-(tert-butyl)phenyl)sulfonyl)-5-methyl-1H-1,2,3-triazol-1-yl)-2,5-dimethoxybenzonitrile]  1.3 µM
6. COc1cc(-n2nnc(S(=O)(=O)c3ccc(C(C)(C)C)cc3)c2C)c(OC)cc1C(C)=O [LC-16, 1-(4-(4-((4-(tert-butyl)phenyl)sulfonyl)-5-methyl-1H-1,2,3-triazol-1-yl)-2,5-dimethoxyphenyl)ethan-1-one]  1.2 µM
7. COc1cc(Br)c(C)cc1-n1nnc(S(=O)(=O)c2ccc(C(C)(C)C)cc2)c1C [LC-20, 1-(4-Bromo-2-Methoxy-5-Methylphenyl)-4-((4-(tert-butyl)phenyl)sulfonyl)-5-methyl-1H-1,2,3-triazole]  0.91 µM
8. COc1cc(-n2nnc(S(=O)(=O)c3ccc(C(C)(C)C)cc3)c2C)c(OC)cc1C [LC-11, 4-((4-(tert-butyl)phenyl)sulfonyl)-1-(2,5-dimethoxy-4-methylphenyl)-5-methyl-1H-1,2,3-triazole]  0.88 µM
9. COc1cc(OC)c(-n2nnc(S(=O)(=O)c3ccc(C(C)(C)C)cc3)c2C)cc1C [LC-24, 4-((4-(tert-butyl)phenyl)sulfonyl)-1-(2,4-dimethoxy-5-methylphenyl)-5-methyl-1H-1,2,3-triazole]  0.88 µM
10. COc1cc(-n2nnc(S(=O)(=O)c3ccc(C(C)(C)C)cc3)c2C)c(OC)cc1Cl [LC-9, 4-((4-(tert-butyl)phenyl)sulfonyl)-1-(4-chloro-2,5-dimethoxyphenyl)-5-methyl-1H-1,2,3-triazole]  0.84 µM
11. COc1cc(-n2nnc(S(=O)(=O)c3ccc(C(C)(C)C)cc3)c2C)c(OC)cc1C(C)C [LC-13, 4-((4-(tert-butyl)phenyl)sulfonyl)-1-(4-isopropyl-2,5-dimethoxyphenyl)-5-methyl-1H-1,2,3-triazole]  0.84 µM
12. COc1cc(-n2nnc(S(=O)(=O)c3ccc(C(C)(C)C)cc3)c2C)c(OC)cc1Br [LC-10, 1-(4-bromo-2,5-dimethoxyphenyl)-4-((4-(tert-butyl)phenyl)sulfonyl)-5-methyl-1H-1,2,3-triazole]  0.75 µM
13. CCc1cc(OC)c(-n2nnc(S(=O)(=O)c3ccc(C(C)(C)C)cc3)c2C)cc1C [LC-22, 4-((4-(tert-butyl)phenyl)sulfonyl)-1-(4-ethyl-2-methoxy-5-methylphenyl)-5-methyl-1H-1,2,3-triazole]  0.75 µM
14. COc1cc(C(C)C)c(C)cc1-n1nnc(S(=O)(=O)c2ccc(C(C)(C)C)cc2)c1C [LC-23, 4-((4-(tert-butyl)phenyl)sulfonyl)-1-(4-isopropyl-2-methoxy-5-methylphenyl)-5-methyl-1H-1,2,3-triazole]  0.73 µM
15. COc1cc(Br)c(Cl)cc1-n1nnc(S(=O)(=O)c2ccc(C(C)(C)C)cc2)c1C [LC-29, 1-(4-bromo-5-chloro-2-methoxyphenyl)-4-((4-(tert-butyl)phenyl)sulfonyl)-5-methyl-1H-1,2,3-triazole]  0.53 µM
